{"source": "patent US20080146669A1", "about": "“Novel Chloride Channel Pore Openers” (THE UAB RESEARCH FOUNDATION, priority 2005, published 2008)", "key": {"ΔF508-CFTR [1]": {"molecular_target": "T1, ΔF508-CFTR (Homo sapiens, UniProt P13569, DEL508-508)", "T1 construct": "expressed in transfected cells; host or cells: HEK-293T, transient; grown at 28° C. for 24 hrs", "T1 sequence (P13569 with tags, fused parts or gaps DEL508-508)": "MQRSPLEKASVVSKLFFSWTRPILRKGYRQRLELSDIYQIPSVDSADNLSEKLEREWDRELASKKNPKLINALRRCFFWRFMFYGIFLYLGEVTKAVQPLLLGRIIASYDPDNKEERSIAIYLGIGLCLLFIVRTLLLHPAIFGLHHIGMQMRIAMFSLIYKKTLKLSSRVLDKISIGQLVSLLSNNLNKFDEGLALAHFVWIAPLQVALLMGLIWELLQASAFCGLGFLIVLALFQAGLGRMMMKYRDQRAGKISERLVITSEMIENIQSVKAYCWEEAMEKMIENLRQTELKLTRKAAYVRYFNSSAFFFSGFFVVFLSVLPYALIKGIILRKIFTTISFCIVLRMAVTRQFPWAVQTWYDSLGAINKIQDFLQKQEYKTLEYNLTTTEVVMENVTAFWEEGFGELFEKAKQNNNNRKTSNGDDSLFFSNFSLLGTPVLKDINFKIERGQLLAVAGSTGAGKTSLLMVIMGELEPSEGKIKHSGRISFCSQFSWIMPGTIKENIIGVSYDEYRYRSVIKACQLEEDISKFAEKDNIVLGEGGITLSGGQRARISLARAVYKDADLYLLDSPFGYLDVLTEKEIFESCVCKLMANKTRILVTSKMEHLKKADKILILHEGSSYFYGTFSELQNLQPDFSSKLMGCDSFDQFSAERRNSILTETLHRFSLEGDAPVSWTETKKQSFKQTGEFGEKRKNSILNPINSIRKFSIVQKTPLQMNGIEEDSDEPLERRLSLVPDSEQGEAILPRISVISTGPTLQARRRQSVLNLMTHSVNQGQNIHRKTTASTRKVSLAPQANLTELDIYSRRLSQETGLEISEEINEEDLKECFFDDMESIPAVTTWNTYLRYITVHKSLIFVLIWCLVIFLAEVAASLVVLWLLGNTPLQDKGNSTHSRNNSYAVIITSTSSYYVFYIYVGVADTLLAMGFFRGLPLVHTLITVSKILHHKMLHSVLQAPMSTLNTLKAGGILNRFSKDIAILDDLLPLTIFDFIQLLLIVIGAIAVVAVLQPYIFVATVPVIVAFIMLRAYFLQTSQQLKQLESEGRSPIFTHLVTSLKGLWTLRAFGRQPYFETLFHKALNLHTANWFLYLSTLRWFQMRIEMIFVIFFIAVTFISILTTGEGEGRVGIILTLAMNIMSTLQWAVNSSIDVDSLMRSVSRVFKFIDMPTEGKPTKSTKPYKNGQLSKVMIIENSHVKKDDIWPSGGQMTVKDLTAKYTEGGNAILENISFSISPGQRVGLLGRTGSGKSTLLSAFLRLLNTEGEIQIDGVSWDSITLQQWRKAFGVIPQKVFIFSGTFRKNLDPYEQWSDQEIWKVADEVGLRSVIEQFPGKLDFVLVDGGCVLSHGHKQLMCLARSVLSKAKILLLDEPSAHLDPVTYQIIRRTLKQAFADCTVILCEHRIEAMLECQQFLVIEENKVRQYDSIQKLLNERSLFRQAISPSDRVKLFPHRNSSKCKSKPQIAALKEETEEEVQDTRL", "test": "Ussing chamber transepithelial chloride currents, temperature-corrected ΔF508-CFTR CFBE41o- monolayers", "type": "cell-based", "protocol": "(§1) Cell culture DNA constructs and transfections. Baby hamster kidney (BHK) cells stably expressing wild type human CFTR (BHK-CFTR) were provided by J. Hanrahan (McGill University). BHK-CFTR cells were cultured in Dulbecco's modified Eagle's medium (DMEM (Mediatech)) supplemented with 5% fetal bovine serum (FBS) and 1 mM penicillin-streptomycin. The growth media for the BHK-CFTR cells also contained 0.5 mM methotrexate to maintain selection for CFTR-expressing cells (22). HEK-293T cells were transiently transfected with wild-type or mutant CFTR cDNA using the Lipofectamine transfection kit following manufacturer's recommendations (Invitrogen, Corp). HEK-293T cells were cultured in DMEM. All cells were grown on plastic coverslips for patch clamp recording and were used 2-3 days post-seeding. Electrophysiology and data analysis. Macroscopic and multi-channel currents were recorded in the excised, inside-out configuration. Patch pipettes were pulled from Corning 8161 glass to tip resistances of […] (macroscopic recordings) or 8-10 mOhm (micropatch studies). CFTR channels were activated following patch excision by exposure of the cytoplasmic face of the patch to catalytic subunit of protein kinase A (PKA; 110 U/ml; Promega) and Mg-ATP (1.5 mM). CFTR currents were recorded in symmetrical solution containing (in mM): 140 N-methyl-D-glucaniine-Cl, 3 MgCl2, 1 EGTA and 10 TES. The pH was adjusted to 7.3. Macroscopic currents were evoked using a ramp protocol from +80 to −80 mV with a 10 sec time period. Patches were held at −80 mV or +80 mV for micropatch (multichannel) recordings. All patch clamp experiments were performed at 21-23° C. Signals from macroscopic and single channel recording were filtered at 20 and 200 Hz, respectively. Data acquisition and analysis were performed using pCLAMP8 and pCLAMP9 software (Axon Instruments). Curve fitting for kinetic analysis was performed using Microcal Origin software. Averaged data are presented as mean +/−SEM. Statistical comparisons were made by performing unpaired t-tests unless otherwise indicated. Ussing Chamber Experiments-CFBE41o epithelial cells stably transfected with ΔF508-CFTR or transiently transfected with wild-type CFTR were cultured as electrically resistive monolayers and assayed in Ussing chambers as described (16). ΔF508-CFTR-expressing monolayers were grown at 27° C. for 2-3 days to enhance the surface expression of this temperature-sensitive mutant. A serosal-to-mucosal Cl^− gradient (120 to 1.2 mM) was imposed, followed by amiloride addition (100 μM) to block Na^+ currents. Compounds were added to both chambers at the indicated concentrations. A 3-mV voltage pulse was imposed every 100 s to monitor transepithelial resistance."}, "[2]": {"test": "Solubility limit on achievable dose", "type": "physicochemical", "conditions": "200-400 μM doses impossible to achieve"}, "wild-type CFTR": {"molecular_target": "wild-type CFTR (Homo sapiens, UniProt P13569)", "sequence (P13569 whole entry)": "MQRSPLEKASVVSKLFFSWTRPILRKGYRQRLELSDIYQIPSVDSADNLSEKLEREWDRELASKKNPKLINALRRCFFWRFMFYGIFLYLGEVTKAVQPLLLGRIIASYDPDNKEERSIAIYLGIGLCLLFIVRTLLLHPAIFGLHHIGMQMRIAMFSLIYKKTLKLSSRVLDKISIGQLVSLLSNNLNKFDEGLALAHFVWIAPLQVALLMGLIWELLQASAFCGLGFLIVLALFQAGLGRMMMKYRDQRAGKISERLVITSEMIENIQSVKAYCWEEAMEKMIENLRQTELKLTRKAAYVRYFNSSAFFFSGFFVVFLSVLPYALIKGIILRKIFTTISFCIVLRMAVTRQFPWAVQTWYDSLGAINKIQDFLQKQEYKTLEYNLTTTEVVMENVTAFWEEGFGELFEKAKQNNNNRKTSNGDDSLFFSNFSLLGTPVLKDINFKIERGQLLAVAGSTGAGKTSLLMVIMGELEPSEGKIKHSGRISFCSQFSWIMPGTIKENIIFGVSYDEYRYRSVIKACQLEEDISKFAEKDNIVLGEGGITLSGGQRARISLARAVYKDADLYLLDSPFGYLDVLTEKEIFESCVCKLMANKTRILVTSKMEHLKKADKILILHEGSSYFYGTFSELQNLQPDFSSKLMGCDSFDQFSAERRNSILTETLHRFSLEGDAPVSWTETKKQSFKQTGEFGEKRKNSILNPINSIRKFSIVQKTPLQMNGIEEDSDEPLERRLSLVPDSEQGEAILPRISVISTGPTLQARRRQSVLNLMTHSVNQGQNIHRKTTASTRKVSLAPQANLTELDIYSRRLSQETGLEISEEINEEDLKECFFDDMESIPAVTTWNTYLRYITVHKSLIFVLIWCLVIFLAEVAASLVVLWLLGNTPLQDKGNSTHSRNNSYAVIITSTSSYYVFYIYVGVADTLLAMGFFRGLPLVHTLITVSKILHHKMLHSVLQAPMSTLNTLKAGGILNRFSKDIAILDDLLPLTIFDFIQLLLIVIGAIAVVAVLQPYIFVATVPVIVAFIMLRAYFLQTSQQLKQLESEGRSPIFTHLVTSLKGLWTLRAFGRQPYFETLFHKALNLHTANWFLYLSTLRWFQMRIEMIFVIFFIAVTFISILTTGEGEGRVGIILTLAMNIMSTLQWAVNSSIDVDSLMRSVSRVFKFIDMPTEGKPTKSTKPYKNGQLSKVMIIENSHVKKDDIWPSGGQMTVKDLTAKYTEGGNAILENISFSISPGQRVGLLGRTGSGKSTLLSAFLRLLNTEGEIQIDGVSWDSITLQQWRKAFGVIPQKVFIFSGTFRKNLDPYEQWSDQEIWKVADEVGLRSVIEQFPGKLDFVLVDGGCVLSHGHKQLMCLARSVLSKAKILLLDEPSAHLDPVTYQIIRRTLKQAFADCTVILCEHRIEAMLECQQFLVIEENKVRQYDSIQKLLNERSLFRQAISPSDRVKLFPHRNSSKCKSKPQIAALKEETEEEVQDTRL", "test": "Macroscopic currents in excised patches from wild-type CFTR-transfected HEK-293T cells", "type": "biochemical", "set-up": "expressed in transfected cells; host or cells: HEK-293T, transient (Lipofectamine)", "conditions": "10 μM; 1.5 mM Mg-ATP and 110 U/ml PKA", "protocol": "(§2) Cell culture DNA constructs and transfections. Baby hamster kidney (BHK) cells stably expressing wild type human CFTR (BHK-CFTR) were provided by J. Hanrahan (McGill University). BHK-CFTR cells were cultured in Dulbecco's modified Eagle's medium (DMEM (Mediatech)) supplemented with 5% fetal bovine serum (FBS) and 1 mM penicillin-streptomycin. The growth media for the BHK-CFTR cells also contained 0.5 mM methotrexate to maintain selection for CFTR-expressing cells (22). HEK-293T cells were transiently transfected with wild-type or mutant CFTR cDNA using the Lipofectamine transfection kit following manufacturer's recommendations (Invitrogen, Corp). HEK-293T cells were cultured in DMEM. All cells were grown on plastic coverslips for patch clamp recording and were used 2-3 days post-seeding. Electrophysiology and data analysis. Macroscopic and multi-channel currents were recorded in the excised, inside-out configuration. Patch pipettes were pulled from Corning 8161 glass to tip resistances of […] (macroscopic recordings) or 8-10 mOhm (micropatch studies). CFTR channels were activated following patch excision by exposure of the cytoplasmic face of the patch to catalytic subunit of protein kinase A (PKA; 110 U/ml; Promega) and Mg-ATP (1.5 mM). CFTR currents were recorded in symmetrical solution containing (in mM): 140 N-methyl-D-glucaniine-Cl, 3 MgCl2, 1 EGTA and 10 TES. […]"}, "AR-S660A-CFTR": {"molecular_target": "T2, AR-S660A-CFTR (Homo sapiens, UniProt P13569, DEL708-835/S660A)", "T2 construct": "expressed in transfected cells; host or cells: HEK-293T, transient", "T2 sequence (P13569 with tags, fused parts or gaps S660A/DEL708-835)": "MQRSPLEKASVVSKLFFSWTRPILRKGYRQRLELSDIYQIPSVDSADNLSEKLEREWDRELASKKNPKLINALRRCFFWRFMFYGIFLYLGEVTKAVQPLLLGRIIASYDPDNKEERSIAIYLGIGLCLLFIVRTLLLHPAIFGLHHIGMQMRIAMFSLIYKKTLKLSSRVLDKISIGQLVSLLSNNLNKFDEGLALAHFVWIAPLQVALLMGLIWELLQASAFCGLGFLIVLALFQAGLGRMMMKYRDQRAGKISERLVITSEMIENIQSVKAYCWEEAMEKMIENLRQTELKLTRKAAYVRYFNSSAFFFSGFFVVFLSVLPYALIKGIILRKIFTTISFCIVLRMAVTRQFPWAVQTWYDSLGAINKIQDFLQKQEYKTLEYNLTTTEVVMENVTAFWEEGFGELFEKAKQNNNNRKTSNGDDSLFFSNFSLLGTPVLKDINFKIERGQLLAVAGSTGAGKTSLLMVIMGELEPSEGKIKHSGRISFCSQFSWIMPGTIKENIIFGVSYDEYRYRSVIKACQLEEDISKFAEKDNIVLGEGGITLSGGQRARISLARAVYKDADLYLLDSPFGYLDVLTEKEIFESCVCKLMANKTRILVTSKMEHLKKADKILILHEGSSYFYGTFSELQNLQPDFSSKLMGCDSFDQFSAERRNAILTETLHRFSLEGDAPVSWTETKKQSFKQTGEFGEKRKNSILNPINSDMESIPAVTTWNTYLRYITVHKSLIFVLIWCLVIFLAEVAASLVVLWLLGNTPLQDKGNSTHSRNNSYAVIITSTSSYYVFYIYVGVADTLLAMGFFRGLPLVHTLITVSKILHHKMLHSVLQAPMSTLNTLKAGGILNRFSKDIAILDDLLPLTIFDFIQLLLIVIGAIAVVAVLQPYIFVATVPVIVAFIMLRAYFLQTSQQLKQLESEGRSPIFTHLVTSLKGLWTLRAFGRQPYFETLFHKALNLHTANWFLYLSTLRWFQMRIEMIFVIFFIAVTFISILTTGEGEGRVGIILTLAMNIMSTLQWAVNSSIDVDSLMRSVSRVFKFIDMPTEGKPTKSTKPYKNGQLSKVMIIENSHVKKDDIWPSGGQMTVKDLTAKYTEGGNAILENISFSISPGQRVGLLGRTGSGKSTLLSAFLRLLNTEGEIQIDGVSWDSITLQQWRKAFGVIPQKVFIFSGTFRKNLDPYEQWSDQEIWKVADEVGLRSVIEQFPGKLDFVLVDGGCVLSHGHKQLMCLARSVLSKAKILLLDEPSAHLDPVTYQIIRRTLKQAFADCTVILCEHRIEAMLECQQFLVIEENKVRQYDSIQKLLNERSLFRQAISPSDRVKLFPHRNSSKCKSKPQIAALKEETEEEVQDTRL", "test": "Macroscopic currents in excised HEK-293T patches, R domain deletion mutant, no PKA", "type": "biochemical", "conditions": "10 μM", "protocol": "as §2"}, "G551D-CFTR": {"molecular_target": "T3, G551D-CFTR (Homo sapiens, UniProt P13569, G551D)", "T3 construct": "expressed in transfected cells; host or cells: HEK-293T, transient", "T3 sequence (P13569 whole entry G551D)": "as the sequence (P13569 whole entry) above, with G551D counted along it", "test": "Macroscopic currents in excised patches from HEK-293T cells expressing G551D-CFTR", "type": "biochemical", "conditions": "10 μM", "protocol": "as §1, with “Ussing Chamber Experiments-CFBE41o epithelial cells stably transfected with ΔF508-CFTR or transiently transfected with wild-type CFTR were cultured as electrically resistive monolayers and assayed in Ussing chambers as described (16). ΔF508-CFTR-expressing monolayers were grown at 27° C. for 2-3 days to enhance the surface expression of this temperature-sensitive mutant. A serosal-to-mucosal Cl^− gradient (120 to 1.2 mM) was imposed, followed by amiloride addition (100 μM) to block Na^+ currents. Compounds were added to both chambers at the indicated concentrations. A 3-mV voltage pulse was imposed every 100 s to monitor transepithelial resistance.” left out"}, "ΔF508-CFTR [3]": {"molecular_target": "T1, ΔF508-CFTR", "test": "Micropatch recording of HEK-293T patches expressing ΔF508-CFTR, opening rate and Po", "type": "biochemical", "protocol": "as §1"}, "[4]": {"conditions": "10 μM, high PKA, 1.5 mM MgATP, −80 mV, best guess estimate, mean±S.E., n=4"}}, "data": [{"molecule": "NC(=O)c1cc([N+](=O)[O-])ccc1NCCCc1ccccc1", "note": "[NPPB-Am]", "values": [{"measurement": "effect on transepithelial currents without cAMP agonist", "setting": "ΔF508-CFTR [1]; 120 nM to 12 μM", "result": "stimulated the transepithelial currents"}, {"measurement": "potentiation of the forskolin effect on ΔF508-CFTR transepithelial currents", "setting": "ΔF508-CFTR [1]; 1 μM compound with 1 μM forskolin, N=8-12", "result": "markedly potentiated the effect of forskolin"}, {"measurement": "stimulated transepithelial current with H89", "setting": "ΔF508-CFTR [1]; prior treatment with H89 100 μM, n=4, monolayer type (wild-type or ΔF508) not stated", "result": "5.5+/−1.3 μA/cm^2"}, {"measurement": "stimulated transepithelial current without H89", "setting": "ΔF508-CFTR [1]; −H89, n=4, monolayer type (wild-type or ΔF508) not stated", "result": "23.3+/−2.0 μA/cm^2"}, {"measurement": "solubility relative to NPPB", "setting": "[2]", "result": "less soluble"}, {"measurement": "stimulation of the activity of the wild-type channel", "setting": "wild-type CFTR", "result": "1.5-2 fold"}, {"measurement": "effect on currents in the absence of PKA", "setting": "AR-S660A-CFTR", "result": "markedly stimulate"}, {"measurement": "effect on G551D-CFTR activity", "setting": "G551D-CFTR", "result": "only modestly stimulated"}, {"measurement": "mean single channel opening rate, post compound", "setting": "ΔF508-CFTR [3]; [4]", "result": "0.87±0.31", "unit": "openings/s/channel"}, {"measurement": "single channel Po, post compound", "setting": "ΔF508-CFTR [3]; [4]", "result": "0.25±0.07"}, {"measurement": "simultaneous openings after compound addition", "setting": "ΔF508-CFTR [3]; 10 μM, representative micropatch, no more than 2 before addition", "result": "12-15"}, {"measurement": "effect on ΔF508-CFTR channel opening rate", "setting": "ΔF508-CFTR [3]; fewer than 10 detectable channels per patch", "result": "large increase in channel opening rate"}]}]}
